What was measured:
[1] = tested on: antibodies in sera from SARS patients (sera 1a, 1b, 2, 6, 37, 62, London, SARS-yellow, SARS-green); format: binding, human; set-up: Binding of serum 6 to linear peptides of protein X1 of SARS-CoV Urbani / Binding of serum 37 to linear peptides of protein X1 of SARS-CoV Urbani / Binding of serum 6 to looped/cyclic peptide (PEPSCAN-ELISA) / Binding of serum 37 to looped/cyclic peptide (PEPSCAN-ELISA) / Binding of serum 37 to looped/cyclic peptides of protein X1 of SARS-CoV Urbani / Binding of serum 6 to linear peptides of protein X2 / Binding of serum 37 to linear peptides of protein X2 / Binding of serum 37 to looped/cyclic peptides of protein X2 of SARS-CoV Urbani / Binding of serum 6 to linear peptides of protein M of SARS-CoV Urbani / Binding of serum 37 to linear peptides of protein M of SARS-CoV Urbani / Binding of serum 6 to looped/cyclic peptides of protein M of SARS-CoV Urbani / Binding of serum 37 to looped/cyclic peptides of protein M of SARS-CoV Urbani / Binding of serum 6 to linear peptides of protein X3 of SARS-CoV Urbani / Binding of serum 37 to linear peptides of protein X3 of SARS-CoV Urbani / Binding of serum 37 to looped/cyclic peptides of protein X3 of SARS-CoV Urbani / Binding of serum 6 to linear peptides of protein X4 of SARS-CoV Urbani / Binding of serum 37 to linear peptides of protein X4 of SARS-CoV Urbani / Binding of serum 37 to looped/cyclic peptides of protein X4 of SARS-CoV Urbani / Binding of serum 6 to linear peptides of protein X5 of SARS-CoV Urbani / Binding of serum 37 to linear peptides of protein X5 of SARS-CoV Urbani / Binding of serum 37 to looped/cyclic peptides of protein X5 of SARS-CoV Urbani / Binding of serum 6 to linear peptides of protein N of SARS-CoV Urbani / Binding of serum 37 to linear peptides of protein N of SARS-CoV Urbani / Binding of serum 6 to linear peptide (PEPSCAN-ELISA) / Binding of serum 1a to looped/cyclic peptides of protein N of SARS-CoV Urbani / Binding of serum 1b to looped/cyclic peptides of protein N of SARS-CoV Urbani / Binding of serum 2 to looped/cyclic peptides of protein N of SARS-CoV Urbani / Binding of serum 6 to looped/cyclic peptides of protein N of SARS-CoV Urbani / Binding of serum 37 to looped/cyclic peptides of protein N of SARS-CoV Urbani / Binding of serum 62 to looped/cyclic peptides of protein N of SARS-CoV Urbani / Binding of serum London to looped/cyclic peptides of protein N of SARS-CoV Urbani / Binding of serum SARS-green to looped/cyclic peptides of protein N of SARS-CoV Urbani: unit not given here
[2] = tested on: control sera (pooled serum of ten healthy LUMC hospital workers; commercial negative donor pooled serum from the Dutch bloodbank); format: binding, human; set-up: Binding of Control serum LUMC to linear peptides / Binding of Control serum Blood-bank to linear peptides / Binding of Control serum LUMC to looped peptides / Binding of Control Serum Blood-Bank to Looped peptides / Binding of Control serum LUMC to linear peptides of the protein M of SARS-CoV Urbani / Binding of Control serum Blood-bank to linear peptides of the protein M of SARS-CoV Urbani / Binding of Control serum LUMC to looped peptides of the protein M of SARS-CoV Urbani / Binding of Control Serum Blood-Bank to Looped peptides of the protein M of SARS-CoV Urbani: unit not given here
[3] = tested on: rabbit serum obtained by immunizing a rabbit with the SARS-CoV strain Frankfurt 1; format: binding; set-up: Binding of a rabbit serum to linear peptides / Binding of a rabbit serum to looped peptides / Rabbit serum linear peptides / Rabbit serum looped peptides / Binding of a rabbit serum to linear peptides of protein N of SARS-CoV Urbani (Rabbit serum linear peptides) / Binding of a rabbit serum to looped/cyclic peptides of protein N of SARS-CoV Urbani (Rabbit serum looped peptides): unit not given here

SQIQLSLLKVTAFQH
Binding of serum 1a to linear peptides of protein X2 [1]: 0.6
Binding of serum 1a to looped/cyclic peptides of protein X2 of SARS-CoV Urbani [1]: 0.5
Binding of serum 1b to linear peptides of protein X2 [1]: 0.5
Binding of serum 1b to looped/cyclic peptides of protein X2 of SARS-CoV Urbani [1]: 0.5
Binding of serum 2 to linear peptides of protein X2 [1]: 0.4
Binding of serum 2 to looped/cyclic peptides of protein X2 of SARS-CoV Urbani [1]: 0.4
Binding of serum 6 to linear peptides of protein X2 [1]: 0.5
Binding of serum 6 to looped/cyclic peptides of protein X2 of SARS-CoV Urbani [1]: 0.6
Binding of serum 37 to linear peptides of protein X2 [1]: 0.5
Binding of serum 37 to looped/cyclic peptides of protein X2 of SARS-CoV Urbani [1]: 0.4
Binding of serum 62 to linear peptides of protein X2 [1]: 0.4
Binding of serum 62 to looped/cyclic peptides of protein X2 of SARS-CoV Urbani [1]: 0.6
Binding of serum London to linear peptides of protein X2 [1]: 0.3
Binding of serum London to looped/cyclic peptides of protein X2 of SARS-CoV Urbani [1]: 1.0
Binding of serum SARS-green to linear peptides of protein X2 [1]: 0.2
Binding of serum SARS-green to looped/cyclic peptides of protein X2 of SARS-CoV Urbani [1]: 0.2
Binding of serum SARS-yellow to linear peptides of protein X2 [1]: 0.3
Binding of serum SARS-yellow to looped/cyclic peptides of protein X2 of SARS-CoV Urbani [1]: 0.7
Binding of Control Serum Blood-Bank to Looped peptides [2]: 0.6
Binding of Control serum Blood-bank to linear peptides [2]: 0.5
Binding of Control serum LUMC to linear peptides [2]: 0.7
Binding of Control serum LUMC to looped peptides [2]: 0.6
Binding of a rabbit serum to linear peptides [3]: 0.7
Binding of a rabbit serum to looped peptides [3]: 0.5

SRTLSYYKLGASQRV
Binding of serum 1a to linear peptides of protein M of SARS-CoV Urbani [1]: 0.8
Binding of serum 1a to looped/cyclic peptides of protein M of SARS-CoV Urbani [1]: 0.9
Binding of serum 1b to linear peptides of protein M of SARS-CoV Urbani [1]: 0.5
Binding of serum 1b to looped/cyclic peptides of protein M of SARS-CoV Urbani [1]: 0.3
Binding of serum 2 to linear peptides of protein M of SARS-CoV Urbani [1]: 0.8
Binding of serum 2 to looped/cyclic peptides of protein M of SARS-CoV Urbani [1]: 0.7
Binding of serum 6 to linear peptides of protein M of SARS-CoV Urbani [1]: 0.4
Binding of serum 6 to looped/cyclic peptides of protein M of SARS-CoV Urbani [1]: 0.9
Binding of serum 37 to linear peptides of protein M of SARS-CoV Urbani [1]: 0.8
Binding of serum 37 to looped/cyclic peptides of protein M of SARS-CoV Urbani [1]: 0.8
Binding of serum 62 to linear peptides of protein M of SARS-CoV Urbani [1]: 0.8
Binding of serum 62 to looped/cyclic peptides of protein M of SARS-CoV Urbani [1]: 0.7
Binding of serum London to linear peptides of protein M of SARS-CoV Urbani [1]: 0.3
Binding of serum London to looped/cyclic peptides of protein M of SARS-CoV Urbani [1]: 0.3
Binding of serum SARS-green to linear peptides of protein M of SARS-CoV Urbani [1]: 0.2
Binding of serum SARS-green to looped/cyclic peptides of protein M of SARS-CoV Urbani [1]: 0.4
Binding of serum SARS-yellow to linear peptides of protein M of SARS-CoV Urbani [1]: 0.1
Binding of serum SARS-yellow to looped/cyclic peptides of protein M of SARS-CoV Urbani [1]: 0.8
Binding of Control Serum Blood-Bank to Looped peptides of the protein M of SARS-CoV Urbani [2]: 0.6
Binding of Control serum Blood-bank to linear peptides of the protein M of SARS-CoV Urbani [2]: 0.9
Binding of Control serum LUMC to linear peptides of the protein M of SARS-CoV Urbani [2]: 0.5
Binding of Control serum LUMC to looped peptides of the protein M of SARS-CoV Urbani [2]: 0.8
Rabbit serum linear peptides [3]: 0.6
Rabbit serum looped peptides [3]: 0.6

SSLTSLLKTHRMCKY
Binding of serum 1a to linear peptides of protein X2 [1]: 0.6
Binding of serum 1a to looped/cyclic peptides of protein X2 of SARS-CoV Urbani [1]: 0.5
Binding of serum 1b to linear peptides of protein X2 [1]: 0.5
Binding of serum 1b to looped/cyclic peptides of protein X2 of SARS-CoV Urbani [1]: 0.5
Binding of serum 2 to linear peptides of protein X2 [1]: 0.4
Binding of serum 2 to looped/cyclic peptides of protein X2 of SARS-CoV Urbani [1]: 0.4
Binding of serum 6 to linear peptides of protein X2 [1]: 0.5
Binding of serum 6 to looped/cyclic peptides of protein X2 of SARS-CoV Urbani [1]: 0.3
Binding of serum 37 to linear peptides of protein X2 [1]: 0.5
Binding of serum 37 to looped/cyclic peptides of protein X2 of SARS-CoV Urbani [1]: 0.3
Binding of serum 62 to linear peptides of protein X2 [1]: 0.6
Binding of serum 62 to looped/cyclic peptides of protein X2 of SARS-CoV Urbani [1]: 0.6
Binding of serum London to linear peptides of protein X2 [1]: 0.4
Binding of serum London to looped/cyclic peptides of protein X2 of SARS-CoV Urbani [1]: 0.2
Binding of serum SARS-green to linear peptides of protein X2 [1]: 0.5
Binding of serum SARS-green to looped/cyclic peptides of protein X2 of SARS-CoV Urbani [1]: 0.2
Binding of serum SARS-yellow to linear peptides of protein X2 [1]: 0.3
Binding of serum SARS-yellow to looped/cyclic peptides of protein X2 of SARS-CoV Urbani [1]: 0.6
Binding of Control Serum Blood-Bank to Looped peptides [2]: 0.7
Binding of Control serum Blood-bank to linear peptides [2]: 0.8
Binding of Control serum LUMC to linear peptides [2]: 0.4
Binding of Control serum LUMC to looped peptides [2]: 0.6
Binding of a rabbit serum to linear peptides [3]: 0.3
Binding of a rabbit serum to looped peptides [3]: 0.5
